The source of these data is patent US5464617A, “β-lactam compounds” (Hoffmann-La Roche Inc., priority 1994, dated 1995).

Experiment [1] has as its system Citrobacter freundii 1982. In words: MIC in vitro of a 1:4 combination of ceftriaxone with a compound of formula I (Test D). It counts as cell-based. The conditions noted are these: for MIC C. freundii 1982 (D): test D; for MIC C. freundii 1982: Table 2. On the procedure:
The minimum inhibitory concentration in vitro ([…]) of a 1:4 combination of ceftriaxone with a compound of formula I against Citrobacter freundii 1982 was measured and compiled in Table 2 hereinafter.

For another experiment, the system named is E. coli 1346. In words: Antibacterial activity of the products per se, serial dilution method in liquid medium (Test E). It counts as cell-based. The conditions noted are these: product per se; for MIC E. coli 1346 (E): test E; for MIC E. coli 1346: Table 3, liquid medium. The source says: The antibacterial activity of the products per se is illustrated on the basis of Table 3 hereinafter, the minimum inhibitory concentration […] in vitro against E. coli 1346 being determined using the serial dilution method in liquid medium: […]

Setting [2] is: Table 4, 1:4 combination of ceftriaxone with the compound.
Setting [3] is: 1:4 combination of ceftriaxone with the compound.

In brackets after ≈: the same amount, converted by molar mass. Counter-ions that a name gives are not always drawn.

Turning to `O=C(Cn1nnnc1SCC1=C(C(=O)O)N2C(=O)[C@H]3NC[C@@H](C1)[C@H]32)Nc1ccc(O)cc1` [Example 77, (1aS,3aR,6bR)-5-[1-(4-Hydroxy-phenylcarbamoylmethyl)-1H-tetrazol-5-ylsulphanylmethyl]-1-oxo-1a,2,3,3a,4,6b-hexahydro-1H-2,6a-diazacyclobut[cd]indene-6-carboxylic acid trifluoroacetate], the “MIC C. freundii 1982 (D)” value in experiment [1] (setting [2]) amounted to 2 µg/mL. Further, in the experiment with E. coli 1346 (Table 4), the “MIC E. coli 1346 (E)” value was found to be 2 µg/mL.
As for `Cc1nnc(SC2=C(C(=O)O)N3C(=O)[C@@H]4[C@H]3[C@H](C2)CN4C(=O)C(F)(F)F)s1` [Example 3(ad), (1aS,3aR,6bR)-5-(5-Methyl-1,3,4-thiadiazol-2-ylsulphanyl)-1-oxo-2-trifluoracetyl-1a,2,3,3a,4,6b-hexahydro-1H-2,6a-diazacyclobut[cd]indene-6-carboxylic acid sodium salt], the “MIC C. freundii 1982 (D)” value in experiment [1] (setting [2]) came to 8 µg/mL. In the experiment with E. coli 1346 (Table 4), the “MIC E. coli 1346 (E)” value is 16 µg/mL.
For `O=C(O)C1=C(CSc2ccncc2)C[C@@H]2CN(C(=O)Nc3ccc(O)cc3)[C@@H]3C(=O)N1[C@H]23` [18(j), (1aS,3aR,6bR)-2-(4-Hydroxy-phenylcarbamoyl)-1-oxo-5-(pyridin-4-ylsulphanylmethyl)-1a,2,3,3a,4,6b-hexahydro-1H-2,6a-diazacyclobut[cd]indene-6-carboxylic acid sodium salt] the same measures were 0.5 µg/mL and greater than 32 µg/mL.
`Cn1nnnc1SC1=C(C(=O)O)N2C(=O)[C@@H]3[C@H]2[C@H](C1)CN3C(=O)NCc1cccs1` [3(d), (1aS,3aR,6bR)-5-(1-Methyl-1H-tetrazol-5-ylsulphanyl)-1-oxo-2-(thien-2-ylmethylcarbamoyl)-1a,2,3,3a,4,6b-hexahydro-1H-2,6a-diazacyclobut[cd]indene-6-carboxylic acid sodium salt]: in experiment [1] (setting [3]), the “MIC C. freundii 1982” value was 1 µg/mL. For the same molecule, in the experiment on E. coli 1346, the “MIC E. coli 1346” value was determined as 32 µg/mL.
For `O=C(O)C1=C(CSc2ccncc2)C[C@@H]2CN(C(=O)NCc3ccc(O)cc3)[C@@H]3C(=O)N1[C@H]23` [18(i), (1aS,3aR,6bR)-2-(4-Hydroxy-benzylcarbamoyl)-1-oxo-5-(pyridin-4-ylsulphanylmethyl)-1a,2,3,3a,4,6b-hexahydro-1H-2,6a-diazacyclobut[cd]indene-6-carboxylic add sodium salt], the “MIC C. freundii 1982 (D)” value in experiment [1] (setting [2]) turned out to be 4 µg/mL. Also, the “MIC E. coli 1346 (E)” value with E. coli 1346 (Table 4) amounted to 32 µg/mL.
Regarding `CO/N=C(\C(=O)N1C[C@H]2CC(Sc3nnnn3C)=C(C(=O)O)N3C(=O)[C@@H]1[C@@H]23)c1csc(N)n1` [Example 7, (Z)-(1aS,3aR,6bR)-2-[(2-Amino-thiazol-4-yl)-methoxyiminoacetyl]-1-oxo-5-(1-methyl-1H-tetrazol-5-ylsulphanyl)-1a,2,3,3a,4,6b-hexahydro-1H-2,6a-diazacyclobut[cd]indene-6-carboxylic acid sodium salt], in experiment [1] (setting [3]), the “MIC C. freundii 1982” value was 16 µg/mL. Besides, in the experiment with E. coli 1346, the “MIC E. coli 1346” value is 64 µg/mL.
Take `CC(=O)N1C[C@H]2OC(CSc3nnnn3CC(=O)NOC(c3ccccc3)(c3ccccc3)c3ccccc3)=C(C(=O)O)N3C(=O)[C@@H]1[C@@H]23` [32(h), (1aS,3aR,6bS)-2-Acetyl-1-oxo-5-(1-(trityloxycarbamoylmethyl)-1H-tetrazol-5-ylsulphanylmethyl)-1,1a,2,3,3a,6b-hexahydro-4-oxa-2,6 a-diazacyclobut[cd]indene-6-carboxylic acid sodium salt]: the “MIC C. freundii 1982 (D)” value in experiment [1] (setting [2]) stood at 64 µg/mL. In addition, the “MIC E. coli 1346 (E)” value against E. coli 1346 (Table 4) was greater than 32 µg/mL.
For the molecule `Nc1nnc(SC2=C(C(=O)O)N3C(=O)[C@@H]4[C@H]3[C@H](C2)CN4C(=O)Nc2ccc(O)cc2)s1` [3(l), (1aS,3aR,6bR)-5-(5-Amino-1,3,4-thiadiazol-2-ylsulphanyl)-2-(4-hydroxyphenylcarbamoyl)-1-oxo-1a,2,3,3a,4,6b-hexahydro-1H-2,6a-diazacyclobut[cd]indene-6-carboxylic acid sodium salt], the “MIC C. freundii 1982” value in experiment [1] (setting [3]) is 0.5 µg/mL. Besides, in experiment [1] (Table 5, particularly preferred products, 1:4 combination with ceftriaxone), the “MIC C. freundii 1982 (D)” value turned out to be 0.5 µg/mL. The “MIC E. coli 1346” value with E. coli 1346 amounted to 8 µg/mL. Also, the “MIC E. coli 1346 (E)” value in the experiment with E. coli 1346 (Table 5, particularly preferred products) was found to be 8 µg/mL.
As for `C[n+]1ccc(SCC2=C(C(=O)[O-])N3C(=O)[C@H]4NC[C@@H](C2)[C@H]43)cc1` [Example 20, (1aS,3aR,6bR)-5-(1-Methyl-pyridin-4-yliosulphanylmethyl)-1-oxo-1a,2,3,3a,4,6b-hexahydro-1H-2,6a-diazacyclobut[cd]indene-6-carboxylate trifluoroacetate], the “MIC C. freundii 1982” value in experiment [1] (setting [3]) worked out at 1 µg/mL. Moreover, the “MIC E. coli 1346” value against E. coli 1346 was no more than 0.5 µg/mL.
Take `CC(=O)N1C[C@H]2CC(COC(=O)Nc3ccc(O)cc3)=C(C(=O)O)N3C(=O)[C@@H]1[C@@H]23` [90(a), (1aS,3aR,6bR)-2-Acetyl-5-(4-hydroxy-phenylcarbamoyloxymethyl)-1-oxo-1a,2,3,3a,4,6b-hexahydro-1H-2,6a-diazacyclobut[cd]indene-6-carboxylic acid sodium salt]: the “MIC C. freundii 1982 (D)” value in experiment [1] (setting [2]) turned out to be 1 µg/mL. Moreover, in the experiment on E. coli 1346 (Table 4), the “MIC E. coli 1346 (E)” value amounted to 0.5 µg/mL.
The like results for `O=C(O)C1=C(Sc2ccncc2)C[C@@H]2CN(C(=O)C(F)(F)F)[C@@H]3C(=O)N1[C@H]23` [3(ai), (1aS,3aR,6bR)-1-Oxo-5-(pyridin-4-ylsulphanyl)-2-trifluoracetyl-1a,2,3,3a,4,6b-hexahydro-1H-2,6a-diazacyclobut[cd]indene-6-carboxylic acid sodium salt] were, in that order, 32 µg/mL and greater than 32 µg/mL.
The like results for `N#C/C=C/C1=C(C(=O)O)N2C(=O)[C@@H]3[C@H]2[C@H](C1)CN3C(=O)Nc1ccc(O)cc1` [49(b), (E)-(1aS,3aR,6bR)-5-(2-Cyanovinyl)-2-(4-hydroxyphenylcarbamoyl)-1-oxo-1a,2,3,3a,4,6b-hexahydro-1H-2,6a-diazacyclobut[cd]indene-6-carboxylic acid sodium salt] were, in that order, 1 µg/mL and 4 µg/mL.
For `Cn1c(O)nnc1SCC1=C(C(=O)O)N2C(=O)[C@H]3NC[C@@H](S1)[C@H]32` [40(d), (1aS,3aR,6bS)-5-(5-Hydroxy-4-methyl-4H-[1,2,4]-triazol-3-ylsulphanylmethyl)-1-oxo-4-thia-1,1a,2,3,3a,6b-hexahydro-2,6a-diazacyclobut[cd]indene-6-carboxylic acid] the same measures were 2 µg/mL and 8 µg/mL (≈ 22.5 µM).
Turning to `CC(=O)N1C[C@H]2SC(CSc3nnc(C)s3)=C(C(=O)O)N3C(=O)[C@@H]1[C@@H]23` [42(a), (1aS,3aR,6bS)-2-Acetyl-5-(5-methyl-1,3,4-thiadiazol-2-ylsulphanylmethyl)-1-oxo-4-thia-1,1a,2,3,3a,6b-hexahydro-2,6a-diazacyclobut[cd]indene-6-carboxylic acid sodium salt], in experiment [1] (setting [2]), the “MIC C. freundii 1982 (D)” value is 1 µg/mL. Besides, the “MIC E. coli 1346 (E)” value against E. coli 1346 (Table 4) is 2 µg/mL.
With `Cn1nnnc1SC1=C(C(=O)O)N2C(=O)[C@@H]3[C@H]2[C@H](C1)CN3C(=O)NCc1ccc(S(N)(=O)=O)cc1` [3(g), (1aS,3aR,6bR)-5-(1-Methyl-1H-tetrazol-5-ylsulphanyl)-1-oxo-2-(4-sulphamoyl-benzylcarbamoyl)-1a,2,3,3a,4,6b-hexahydro-1H-2,6a-diazacyclobut[cd]indene-6-carboxylic acid sodium salt], in experiment [1] (setting [3]), the “MIC C. freundii 1982” value was 0.5 µg/mL. The “MIC E. coli 1346” value against E. coli 1346 was 16 µg/mL.
